Measurements published in patent publication US9695182B2, “Chemical compounds (derivatives) and their application for the treatment of oncological diseases” (LIMITED LIABILITY COMPANY “NATIONAL PHARMACEUTICAL …, priority 2013, dated 2017).

Columns and labels:
Karpas-299 = experiment: Antiproliferative activity on KARPAS-299 cells (MTS); assay type: cell-based; details: Homo sapiens, concentration at which the number of living cells is reduced 2-fold compared with absence of compound
Method: Furthermore, antiproliferative activity of the compounds of this invention can be studied on cell lines KARPAS-299 of anaplastic large cell lymphoma according to the following procedure. KARPAS-299 cells cultured in RPMI 1640 growth medium, are transferred in duplicate to 96-well culture plate (10,000 cells per well) and a solution of the analytes in a growth medium is added to them at various concentrations (final volume in each well—100 μl). The solids were dissolved in DMSO and then the solution was diluted with DMSO to the desired concentration, mixed with an equal volume of growth medium and transferred to wells with the cells. The final concentration of compounds ranged from 0.5 nM to 10 μM. DMSO was used as a control (in the same amount as that of adding solutions of substances). After the cells incubation with the compounds for 72 hours, the number of viable cells was determined. For this purpose, old medium was removed, 100 μl of fresh medium and 40 μl of MTS solution, containing 5 mg/ml PBS were added to each well. The plate was incubated for 2 hours at 37° C., then 100 μl of DMSO was added to each well and mixed for 1 minute. Then, the optical density was determined at 490 nm and percentage of inhibition of proliferation was calculated in comparison with the control (containing no analytes).

[1] = in vivo; cited from earlier work
NCI-H3122 cells = experiment: Efficacy in animal model of non-small cell lung cancer (NCI-H3122 tumors); assay type: in vivo, male athymic mice; details: 30 mg/kg daily by gavage, 20 days; ratio of average tumor volume treatment/control
Method: The male athymic mice were used for the studies. NCI-H3122 cells in an amount of 1×10^7 were administered in the form of 0.2 ml Matrigel solution (BD Pharmingen) in the left leg of the mouse under ketamine-xylazine anesthesia. One week after cells injection mice were divided into the treatment and control groups and randomized by tumor size. Tumor volume was calculated according to the formula V=0.5×W^2×L. The control animals received daily 0.3 ml of 0.5% of methylcellulose solution, animals of the treatment group −0.3 ml of 0.5% of methylcellulose suspension containing the drug in a test dose. The solutions were administered by gavage. The treatment continued for 20 days. The ratio of the average volume for the treatment/control groups (% T/C) was calculated after treatment to determine the effectiveness of inhibition of tumor growth. The analysis of the statistical significance using Dunnett's test was performed for the data collection. Effectiveness of the test compounds in a dose of 30 mg/kg is introduced below.

Karpas-299 cells = experiment: Efficacy in animal model of anaplastic large cell lymphoma (Karpas-299 tumors); assay type: in vivo, SCID-mice; details: 30 mg/kg daily by gavage, 23 days; ratio of average tumor volume treatment/control
Method: SCID-mice with tumors that have developed as a result of the introduction of Karpas-299 cells were used for the studies. When tumor size reached 220 mm^3 animals were divided into the treatment and control groups and were randomized by tumor size. The control animals received daily 0.3 ml of 0.5% of methylcellulose solution, animals of the treatment group—0.3 ml of 0.5% of methylcellulose suspension containing the drug in a test dose. The solutions were administered by gavage. The treatment continued for 23 days. The ratio of the average volume for the treatment/control groups (% T/C) was calculated after treatment to determine the effectiveness of inhibition of tumor growth. The analysis of the statistical significance using Dunnett's test was performed for the data collection. Effectiveness of the test compounds in a dose of 30 mg/kg is introduced below.

Row | Compound | IC50 (Karpas-299) [nM] | further results
1 | Fc1ccc(Cl)c(CN2CCNc3nnc(-c4nnc(C(F)(F)F)[nH]4)cc32)c1Cl | < 1000 | 
2 | CN1CCC(c2nnc(-c3cc4c(nn3)NCCN4Cc3c(Cl)ccc(F)c3Cl)o2)CC1 | < 100 | 
3 | CC(C)c1noc(-c2cc3c(nn2)NCCN3Cc2c(Cl)ccc(F)c2Cl)n1 | < 1000 | 
4 | Fc1ccc(Cl)c(CN2CCNc3nnc(-c4ccc(N5CCOCC5)cc4)cc32)c1Cl | < 100 | 
5 | C[C@H](c1c(Cl)ccc(F)c1Cl)N1CCNc2nnc(-c3ccc(N4CCCC4)nc3)cc21 | < 100 | 
6 | O=C(NCCc1ccccc1)c1cc2c(nn1)NCCN2Cc1c(Cl)ccc(F)c1Cl | < 1000 | 
7 | Clc1ccc(Cl)c(CN2CCNc3nnc(CNC4CCNCC4)cc32)c1 | < 1000 | 
8 | O=C(c1cc2c(nn1)NCCN2Cc1c(Cl)ccc(F)c1Cl)N1CCN(c2ccccc2)CC1 | < 100 | 
9 | C[C@H](c1c(Cl)ccc(F)c1Cl)N1CCNc2nnc(Nc3cccc(N4CCOCC4)c3)cc21 | < 100 | 
10 | C[C@H](c1cc(Cl)ccc1C(F)(F)F)N1CCNc2nnc(Nc3cccc(N4CCOCC4)c3)cc21 | < 100 | 
11 | COc1cc(N2CCC(N(C)C)CC2)ccc1Nc1cc2c(nn1)NCCN2Cc1c(Cl)ccc(F)c1Cl | < 100 | 
12 | C[C@H](c1c(Cl)ccc(F)c1Cl)N1CCNc2nnc(-c3nc(C4CCNCC4)no3)cc21 | < 100 | 
13 | C[C@@H](Oc1cc(-c2cnn(C3CCNCC3)c2)cnc1N)c1c(Cl)ccc(F)c1Cl [Crizotinib] |  | penetration through the blood-brain barrier [1]: does not penetrate through the blood-brain barrier
14 | Clc1ccc(Cl)c(CN2CCNc3nnc(-c4nnc(C5CCNCC5)[nH]4)cc32)c1 [drawing 218] | < 100 | 
15 | CC(c1c(Cl)ccc(F)c1Cl)N1CCNc2nnc(C(=O)Nc3ccc(C(=O)N4CCCC4)cc3)cc21 (stereo not shown) [drawing 228] | < 100 | 
16 | CN1CCN(C(=O)c2ccc(NC(=O)c3cc4c(nn3)NCCN4Cc3cc(Cl)ccc3Cl)cc2)CC1 [drawing 231] | < 100 | 

Row | Compound | IC50 (Karpas-299) [nM] | further results
17 | O=C(Nc1ccc(N2CCOCC2)cc1)c1cc2c(nn1)NCCN2Cc1cc(Cl)ccc1Cl [drawing 232] | < 100 | 
18 | Fc1ccc(Cl)c(CN2CCNc3nnc(-c4nnc(C5CCNCC5)[nH]4)cc32)c1Cl [drawing 233] | < 100 | 
19 | Clc1ccc(Cl)c(CN2CCNc3nnc(-c4nnc(C5CCNCC5)o4)cc32)c1 [drawing 234] | < 100 | 
20 | Clc1ccc(Cl)c(CN2CCNc3nnc(-c4nnc(C5CCNCC5)[nH]4)cc32)c1 [drawing 236] |  | % T/C (NCI-H3122 cells): <40%
21 | CC(c1c(Cl)ccc(F)c1Cl)N1CCNc2nnc(C(=O)Nc3ccc(C(=O)N4CCCC4)cc3)cc21 (stereo not shown) [drawing 237] |  | % T/C (NCI-H3122 cells): <40%
22 | CN1CCN(C(=O)c2ccc(NC(=O)c3cc4c(nn3)NCCN4Cc3cc(Cl)ccc3Cl)cc2)CC1 [drawing 238] |  | % T/C (NCI-H3122 cells): <40%
23 | O=C(Nc1ccc(N2CCOCC2)cc1)c1cc2c(nn1)NCCN2Cc1cc(Cl)ccc1Cl [drawing 239] |  | % T/C (NCI-H3122 cells): <40%
24 | Fc1ccc(Cl)c(CN2CCNc3nnc(-c4nnc(C5CCNCC5)[nH]4)cc32)c1Cl [drawing 240] |  | % T/C (NCI-H3122 cells): <40%
25 | Clc1ccc(Cl)c(CN2CCNc3nnc(-c4nnc(C5CCNCC5)o4)cc32)c1 [drawing 241] |  | % T/C (NCI-H3122 cells): <40%
26 | Clc1ccc(Cl)c(CN2CCNc3nnc(-c4nnc(C5CCNCC5)[nH]4)cc32)c1 [drawing 242] |  | % T/C (Karpas-299 cells): <40%
27 | CC(c1c(Cl)ccc(F)c1Cl)N1CCNc2nnc(C(=O)Nc3ccc(C(=O)N4CCCC4)cc3)cc21 (stereo not shown) [drawing 243] |  | % T/C (Karpas-299 cells): <40%
28 | CN1CCN(C(=O)c2ccc(NC(=O)c3cc4c(nn3)NCCN4Cc3cc(Cl)ccc3Cl)cc2)CC1 [drawing 244] |  | % T/C (Karpas-299 cells): <40%
29 | O=C(Nc1ccc(N2CCOCC2)cc1)c1cc2c(nn1)NCCN2Cc1cc(Cl)ccc1Cl [drawing 245] |  | % T/C (Karpas-299 cells): <40%
30 | Fc1ccc(Cl)c(CN2CCNc3nnc(-c4nnc(C5CCNCC5)[nH]4)cc32)c1Cl [drawing 246] |  | % T/C (Karpas-299 cells): <40%
31 | Clc1ccc(Cl)c(CN2CCNc3nnc(-c4nnc(C5CCNCC5)o4)cc32)c1 [drawing 247] |  | % T/C (Karpas-299 cells): <40%
